Experimental data taken from the NIST ThermoML archive (doi:10.1021/je101156d).

Assay: mn = molality of the nth substance listed, in mol/kg
Settings: 101.3 kPa, Liquid, Dip Cell

CC(CN1c2ccccc2Sc2ccccc21)N(C)C.Cl (stereo not given) [promethazine hydrochloride] + O
electrical conductivity [S/m]
Settings | 293.15 K | 303.15 K | 313.15 K | 323.15 K
m1 = 0.00484 | 0.029 | 0.039 | 0.05 | 0.063
m1 = 0.00938 | 0.065 | 0.075 | 0.092 | 0.105
m1 = 0.0136 | 0.099 | 0.109 | 0.131 | 0.144
m1 = 0.0176 | 0.13 | 0.14 | 0.167 | 0.18
m1 = 0.0214 | 0.159 | 0.169 | 0.199 | 0.212
m1 = 0.025 | 0.184 | 0.194 | 0.229 | 0.242
m1 = 0.0284 | 0.208 | 0.218 | 0.257 | 0.27
m1 = 0.0316 | 0.23 | 0.24 | 0.285 | 0.298
m1 = 0.0346 | 0.251 | 0.261 | 0.309 | 0.322
m1 = 0.0375 | 0.271 | 0.281 | 0.332 | 0.345
m1 = 0.0402 | 0.289 | 0.299 | 0.353 | 0.366
m1 = 0.0429 | 0.307 | 0.317 | 0.376 | 0.389
m1 = 0.0453 | 0.327 | 0.337 | 0.395 | 0.408
m1 = 0.0477 | 0.336 | 0.346 | 0.413 | 0.426
m1 = 0.05 | 0.347 | 0.357 | 0.428 | 0.447
m1 = 0.0522 | 0.358 | 0.368 | 0.44 | 0.457
m1 = 0.0543 | 0.369 | 0.379 | 0.45 | 0.467
m1 = 0.0563 | 0.38 | 0.39 | 0.46 | 0.477
m1 = 0.0582 | 0.391 | 0.401 | 0.47 | 0.487
m1 = 0.06 | 0.402 | 0.412 | 0.48 | 0.497
m1 = 0.0618 | 0.41 | 0.42 | 0.488 | 0.505
m1 = 0.0635 | 0.417 | 0.427 | 0.496 | 0.513
m1 = 0.0651 | 0.424 | 0.434 | 0.504 | 0.52
m1 = 0.0667 | 0.431 | 0.441 | 0.512 | 0.527
m1 = 0.0682 | 0.438 | 0.448 | 0.52 | 0.534
m1 = 0.0696 | 0.445 | 0.455 | 0.528 | 0.54
m1 = 0.0711 | 0.452 | 0.462 | 0.536 | 0.546
m1 = 0.0724 | 0.459 | 0.469 | 0.542 | 0.552
m1 = 0.0737 | 0.466 | 0.476 | 0.548 | 0.557
m1 = 0.075 | 0.473 | 0.483 | 0.554 | 0.562
